Measured values as given in BindingDB's records for doi:10.1016/s0960-894x(00)00136-0 (Iowa State University, 2000).

How the values were obtained:
[1] = target: Endothelin-1 receptor (rabbit); assay: Tested for binding affinity towards rabbit Endothelin A receptor
[2] = target: Endothelin receptor type B (rabbit); assay: Tested for binding affinity towards rabbit Endothelin B receptor

IC50 [1]: 50 µM | IC50 [2]: 70 µM
Compound: C/C=C/C=C/C(=O)O[C@@H]1C=C2COC(O)[C@]2(O)[C@@]2(C)CCCC(C)(C)C12 (stereo partly drawn) [(2E,4E)-Hexa-2,4-dienoic acid (5R,9aS,9bS)-1,9b-dihydroxy-6,6,9a-trimethyl-1,3,5,5a,6,7,8,9,9a,9b-decahydro-naphtho[1,2-c]furan-5-yl ester]
